{
  "source": "ChEMBL document CHEMBL1201862",
  "about": "“PubChem BioAssay data set” (2004)",
  "key": {"DNA topoisomerase": {"target": "DNA topoisomerase (Yersinia pestis, UniProt A0A2S9PM60)", "sequence (A0A2S9PM60 whole entry)": "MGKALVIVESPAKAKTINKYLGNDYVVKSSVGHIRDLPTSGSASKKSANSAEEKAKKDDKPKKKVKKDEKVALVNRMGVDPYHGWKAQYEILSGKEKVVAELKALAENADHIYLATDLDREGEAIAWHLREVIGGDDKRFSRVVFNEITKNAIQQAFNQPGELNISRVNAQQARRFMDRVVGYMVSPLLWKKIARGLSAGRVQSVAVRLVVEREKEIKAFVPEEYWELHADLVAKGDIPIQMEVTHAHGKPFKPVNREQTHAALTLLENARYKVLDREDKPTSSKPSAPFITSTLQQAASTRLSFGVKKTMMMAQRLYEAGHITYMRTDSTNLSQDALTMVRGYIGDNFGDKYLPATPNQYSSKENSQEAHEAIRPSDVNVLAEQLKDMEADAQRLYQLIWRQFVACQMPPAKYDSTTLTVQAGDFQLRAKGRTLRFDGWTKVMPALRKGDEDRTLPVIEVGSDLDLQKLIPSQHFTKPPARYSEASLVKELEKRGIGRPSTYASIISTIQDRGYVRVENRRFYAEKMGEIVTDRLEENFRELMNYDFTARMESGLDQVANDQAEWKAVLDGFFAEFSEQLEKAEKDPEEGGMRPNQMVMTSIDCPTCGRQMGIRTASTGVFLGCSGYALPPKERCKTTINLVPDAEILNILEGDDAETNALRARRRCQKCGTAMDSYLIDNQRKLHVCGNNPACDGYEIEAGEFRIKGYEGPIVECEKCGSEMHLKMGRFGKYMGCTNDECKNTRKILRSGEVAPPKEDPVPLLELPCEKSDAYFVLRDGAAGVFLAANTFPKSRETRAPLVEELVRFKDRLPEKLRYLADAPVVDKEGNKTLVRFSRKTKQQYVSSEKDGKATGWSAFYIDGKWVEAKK", "assay": "Y. pestis Topo-I inhibitors, cleavage product readout, dose response, biochemical, cherry-pick (AID 588525)"}, "[1]": {"target": "Acyl-homoserine lactone acylase PvdQ (Pseudomonas aeruginosa (strain LESB58), UniProt Q9I194)", "sequence (Q9I194 24-193 limits assumed)": "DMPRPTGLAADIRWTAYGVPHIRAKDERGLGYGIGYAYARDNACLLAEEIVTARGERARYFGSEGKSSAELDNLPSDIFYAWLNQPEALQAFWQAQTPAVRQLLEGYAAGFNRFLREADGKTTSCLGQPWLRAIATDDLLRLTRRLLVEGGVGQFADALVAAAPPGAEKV", "sequence (Q9I194 217-762 limits assumed)": "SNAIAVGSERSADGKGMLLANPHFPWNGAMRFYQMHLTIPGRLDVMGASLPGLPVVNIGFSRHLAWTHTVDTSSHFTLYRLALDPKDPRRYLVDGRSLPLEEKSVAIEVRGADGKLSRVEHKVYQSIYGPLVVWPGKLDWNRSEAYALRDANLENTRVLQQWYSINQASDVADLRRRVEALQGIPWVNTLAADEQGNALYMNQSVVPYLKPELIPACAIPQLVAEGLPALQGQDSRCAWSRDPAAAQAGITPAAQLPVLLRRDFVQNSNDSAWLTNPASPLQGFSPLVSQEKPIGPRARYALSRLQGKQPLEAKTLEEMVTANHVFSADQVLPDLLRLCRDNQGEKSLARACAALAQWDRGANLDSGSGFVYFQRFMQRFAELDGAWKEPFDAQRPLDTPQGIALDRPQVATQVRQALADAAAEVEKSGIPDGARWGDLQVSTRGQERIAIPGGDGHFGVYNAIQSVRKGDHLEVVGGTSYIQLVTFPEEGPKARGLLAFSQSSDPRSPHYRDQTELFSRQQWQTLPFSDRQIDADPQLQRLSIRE", "assay": "P. aeruginosa PvdQ acylase inhibitors, dose response, biochemical, fluorescence, plate reader and imaging, cherry-picks (AID 493231)"}, "HeLa": {"system": "HeLa", "assay": "HeLa cell cytotoxicity, dose response, cytotoxicity control, 48 h, plate reader, cherry-picks (AID 504942)", "format": "functional, cell-based", "conditions": "Homo sapiens"}, "Hexokinase HKDC1": {"target": "T1, Hexokinase HKDC1 (Homo sapiens, UniProt Q2TB90)", "T1 sequence (Q2TB90 whole entry)": "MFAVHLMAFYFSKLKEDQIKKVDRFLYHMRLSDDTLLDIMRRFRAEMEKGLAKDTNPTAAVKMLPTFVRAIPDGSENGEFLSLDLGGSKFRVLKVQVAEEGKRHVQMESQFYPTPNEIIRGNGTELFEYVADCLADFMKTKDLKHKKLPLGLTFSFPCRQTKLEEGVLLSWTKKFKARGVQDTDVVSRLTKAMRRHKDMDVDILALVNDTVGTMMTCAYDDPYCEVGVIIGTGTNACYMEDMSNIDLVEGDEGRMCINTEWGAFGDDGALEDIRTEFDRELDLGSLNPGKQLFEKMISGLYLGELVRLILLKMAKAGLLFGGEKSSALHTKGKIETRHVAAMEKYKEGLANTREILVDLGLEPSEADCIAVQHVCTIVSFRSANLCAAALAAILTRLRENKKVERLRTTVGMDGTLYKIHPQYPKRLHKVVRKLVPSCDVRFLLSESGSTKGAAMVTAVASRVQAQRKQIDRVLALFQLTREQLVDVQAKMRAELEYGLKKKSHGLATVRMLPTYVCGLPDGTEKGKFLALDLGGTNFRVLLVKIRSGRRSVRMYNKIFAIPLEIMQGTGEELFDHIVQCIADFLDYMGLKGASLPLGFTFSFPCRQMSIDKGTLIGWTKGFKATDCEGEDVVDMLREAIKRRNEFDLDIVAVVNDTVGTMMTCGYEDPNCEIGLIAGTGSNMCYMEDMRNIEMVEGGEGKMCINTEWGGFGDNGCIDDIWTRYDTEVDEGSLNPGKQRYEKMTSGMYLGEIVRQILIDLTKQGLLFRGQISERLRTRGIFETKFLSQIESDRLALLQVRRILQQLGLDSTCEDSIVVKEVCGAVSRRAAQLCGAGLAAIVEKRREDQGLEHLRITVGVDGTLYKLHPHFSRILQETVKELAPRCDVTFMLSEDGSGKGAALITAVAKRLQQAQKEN", "assay": "SAR analysis of small molecule inhibitors of hexokinase domain containing I (HKDC1). [Related pubchem assays (depositor defined):AID493160, AID493190]", "format": "functional"}, "Hexokinase-1": {"target": "T2, Hexokinase-1 (Homo sapiens, UniProt P19367)", "T2 sequence (P19367 whole entry)": "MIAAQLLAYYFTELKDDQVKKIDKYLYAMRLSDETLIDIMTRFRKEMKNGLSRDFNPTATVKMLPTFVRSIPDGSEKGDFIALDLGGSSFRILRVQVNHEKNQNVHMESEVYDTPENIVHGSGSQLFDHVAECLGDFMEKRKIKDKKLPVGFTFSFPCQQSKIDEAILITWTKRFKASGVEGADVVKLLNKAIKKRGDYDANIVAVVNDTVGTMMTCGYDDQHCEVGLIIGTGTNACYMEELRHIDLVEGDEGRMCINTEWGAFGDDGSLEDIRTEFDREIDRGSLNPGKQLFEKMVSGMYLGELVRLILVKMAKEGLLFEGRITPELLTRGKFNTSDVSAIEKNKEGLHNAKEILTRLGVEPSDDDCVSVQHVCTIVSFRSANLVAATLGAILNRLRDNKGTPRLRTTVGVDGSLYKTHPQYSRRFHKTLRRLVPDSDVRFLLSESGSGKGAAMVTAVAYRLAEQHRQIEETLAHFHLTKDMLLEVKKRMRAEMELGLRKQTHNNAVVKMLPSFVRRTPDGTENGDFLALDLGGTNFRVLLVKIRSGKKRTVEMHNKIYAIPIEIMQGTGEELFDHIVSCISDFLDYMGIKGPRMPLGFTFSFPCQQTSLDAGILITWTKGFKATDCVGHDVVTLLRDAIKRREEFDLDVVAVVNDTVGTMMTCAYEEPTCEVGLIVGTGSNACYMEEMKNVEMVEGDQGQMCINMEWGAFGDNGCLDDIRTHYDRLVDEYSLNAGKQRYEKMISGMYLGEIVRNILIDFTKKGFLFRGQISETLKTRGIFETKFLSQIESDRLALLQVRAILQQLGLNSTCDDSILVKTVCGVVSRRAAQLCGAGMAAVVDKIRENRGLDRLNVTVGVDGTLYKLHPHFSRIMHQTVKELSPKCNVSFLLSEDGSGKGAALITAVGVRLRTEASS", "assay": "SAR analysis of small molecule inhibitors of hexokinase domain containing I (HKDC1) in the hexokinase 1 selectivity assay. [Related pubchem assays (depositor defined):AID493160, AID493190]", "format": "functional"}},
  "note": "The source made the active and inactive calls.",
  "data": [
    {"smiles": "Cc1cc(NC(=O)c2cc(-c3ccccc3)on2)n(-c2ccccc2)n1", "values": [
      {"measurement": "AC50", "setting": "DNA topoisomerase", "value": "4.16 µM (active)"}
    ]},
    {"smiles": "Cc1cccc(NC(=O)c2ccc3c(c2)OCCO3)n1", "values": [
      {"measurement": "AC50", "setting": "[1]", "value": "10.2 µM (active)"},
      {"measurement": "AC50", "setting": "HeLa", "value": "94.1 µM (active)"}
    ]},
    {"smiles": "Cc1ccccc1/C=C/c1nc2ccccc2c(=O)n1Cc1ccccc1", "values": [
      {"measurement": "IC50", "setting": "Hexokinase HKDC1", "value": "> 80 µM (inactive)"},
      {"measurement": "IC50", "setting": "Hexokinase-1", "value": "> 80 µM (inactive)"}
    ]}
  ]
}
